In patent publication US20250162973A1, “METHODS OF SYNTHESIS AND USES OF AGRIMOL COMPOUNDS” (Versitech Limited, priority 2022, published 2025):
pIC50, pKd: −log10 of the molar value.

Key:
[1] = test system: cancer stem cells (NCI-H460 tumorspheres); assay: MTT assay on tumorspheres (cancer stem cells); format: cell-based; conditions: Homo sapiens, 72-h treatment
Protocol: For IC50 determination of sphere, similar procedures were performed as mentioned above. Briefly, cells were plated in 96-well clear flat bottom ultra-low attachment cell culture plates (Corning®) with a density of 5*10^3 cells into each well with specific sphere formation medium (DMEM/F12 medium supplemented with 20 ng/mL EGF, 20 ng/mL bFGF, 2% B27). The cells were then treated with AGB at different concentrations, ranging from 0.3 to 100 μM. After 3 days of treatment, the formed tumorspheres in each well were monitored under microscope. The MTT was then applied to determine the cell viability and the cell viability of AGB-treatment group was calculated via normalization to control groups and the IC50 value was calculated from the plot curve that fitted to a Boltzmann sigmoidal function.

[2] = Hematological examination in MTD test; format: in vivo; conditions: 12.8 mg/kg, day 14
Protocol: The MTD test in this study was done in collaboration with Tianjin Institute of Pharmaceutical Research (TIPR). […] A total of 80 mice were randomly assigned into four groups (10 male and 10 female mice in each group) in this study. Four groups included 16.0 mg/kg of AGB group, 12.8 mg/kg of AGB group, vehicle control group (10% DMSO+0.8% Tween-80 in normal saline), and the blank control group (normal saline).
Then, the body weights of surviving animals were measured on the 1st, 3rd, 7th and 14th days, respectively. At the end of experiment, the hematology, blood biochemistry, anatomical examination, and histopathology examination were performed in both vehicle control group and the MTD group (12.8 mg/kg). The data were presented as the mean±standard deviation.

[3] = target: T1, CS (Homo sapiens, UniProt O75390); assay: Tryptophan fluorescence quenching assay; format: binding
T1 sequence (O75390 28-466): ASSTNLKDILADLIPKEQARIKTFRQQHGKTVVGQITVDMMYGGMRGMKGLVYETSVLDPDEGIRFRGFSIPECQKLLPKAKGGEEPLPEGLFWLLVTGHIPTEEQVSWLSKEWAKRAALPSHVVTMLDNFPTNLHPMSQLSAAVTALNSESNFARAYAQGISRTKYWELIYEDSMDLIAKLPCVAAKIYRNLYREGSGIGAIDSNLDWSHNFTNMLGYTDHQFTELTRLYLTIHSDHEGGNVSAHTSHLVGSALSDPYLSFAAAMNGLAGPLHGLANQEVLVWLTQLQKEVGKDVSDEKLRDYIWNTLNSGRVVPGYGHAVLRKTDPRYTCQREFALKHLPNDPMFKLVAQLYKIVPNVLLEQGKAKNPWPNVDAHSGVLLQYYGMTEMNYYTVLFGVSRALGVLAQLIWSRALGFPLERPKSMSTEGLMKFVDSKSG
Protocol: FIG. 5A is a volcano plot (ΔTm, p-value) for TPP data obtained from NCI-H460 cells with 4 μM AGB treatment for 1 h. The criteria were set as ΔTm>2° C. and p<0.05. FIG. 5B is a graph showing results of the tryptophan fluorescence quenching assay for the direct interaction between AGB and three target proteins. Upper, tryptophan fluorescence titration of recombinant proteins with AGB. […] For CS, its fluorescence decrease was saturated when AGB concentrations increased to about 32 μM. Lower, the normalized tryptophan intensities at an emission of 320 nm were plotted as a function of total added concentration of AGB. The dissociation constants (Kd) between AGB and three proteins were then calculated by fitting this plot with Stern-Volmer Equation. […] The fluorescence intensity was presented as percentage relative to control groups. […]
To further examine whether AGB interacts directly with the above three identified proteins, the intrinsic tryptophan fluorescence properties of these proteins were examined in the presence of AGB at different concentrations. Upon binding with AGB, proteins experience a change of the tryptophan environment, which can be visualized by fluorescence spectroscopy. As shown in FIG. 5B the tryptophan fluorescence of three proteins were all quenched by AGB in a concentration-dependent manner.

[4] = target: T2, TALDO1 (Homo sapiens, UniProt P37837); assay: Targeted metabolomics of PPP intermediates and intracellular NADPH; format: cell-based; conditions: after treatment of AGB
T2 construct: endogenous in cells
T2 sequence (P37837 1-337): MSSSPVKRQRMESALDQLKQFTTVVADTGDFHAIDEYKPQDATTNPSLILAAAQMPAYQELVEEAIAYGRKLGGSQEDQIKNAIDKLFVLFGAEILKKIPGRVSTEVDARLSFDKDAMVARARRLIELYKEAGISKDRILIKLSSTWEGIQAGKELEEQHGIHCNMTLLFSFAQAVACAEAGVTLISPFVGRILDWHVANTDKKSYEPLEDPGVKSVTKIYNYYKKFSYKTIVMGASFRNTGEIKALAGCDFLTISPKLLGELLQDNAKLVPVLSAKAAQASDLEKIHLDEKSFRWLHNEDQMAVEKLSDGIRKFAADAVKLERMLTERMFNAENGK
Protocol: TALDO1 is a key enzyme of the nonoxidative PPP providing ribose-5-phosphate for nucleic acid synthesis and NADPH (the reduced form of Nicotinamide adenine dinucleotide phosphate) for lipid biosynthesis. Targeted metabolomics analysis was performed for measuring of the intermediate metabolites involved in the PPP pathway. […] PPP activation has been widely found in different types of cancer because of the uncontrolled proliferation of cancer cells. […] Moreover, enhanced production of NADPH is crucial to increase the intracellular redox power of cancer cells to escape from oxidative stress.

SMILES: CCCC(=O)c1c(O)c(Cc2c(O)c(Cc3c(O)c(C)c(OC)c(C(=O)CCC)c3O)c(O)c(C(=O)[C@@H](C)CC)c2O)c(O)c(C)c1OC [AGB, Agrimol B]
- pIC50 [1]: 5.40
- E (eosinophils) [2]: 0.29 ± 0.11 ×10^9/L
- E(%) [2]: 5.48 ± 1.64%
- HCT [2]: 47.54 ± 2.21%
- HGB [2]: 138.20 ± 9.38 g/L
- L (lymphocytes) [2]: 4.22 ± 1.32 ×10^9/L
- L(%) [2]: 77.53 ± 2.05%
- M (monocytes) [2]: 0.09 ± 0.03 ×10^9/L
- M(%) [2]: 1.64 ± 0.46%
- MCH [2]: 15.20 ± 0.97 pg
- MCHC [2]: 291.00 ± 20.17 g/L
- MCV [2]: 52.25 ± 2.16 fL
- N (neutrophils) [2]: 0.78 ± 0.28 ×10^9/L
- N(%) [2]: 14.24 ± 2.15%
- PLT [2]: 1733.80 ± 371.53 ×10^9/L
- RBC [2]: 9.11 ± 0.45 ×10^12/L
- Ret [2]: 0.81 ± 0.09 ×10^12/L
- Ret(%) [2]: 8.83 ± 0.74%
- WBC [2]: 5.44 ± 1.66 ×10^9/L
- pKd ([3]; Stern-Volmer analysis, read-out: Kd of AGB binding to CS): 5.31
- AGB concentration at which the CS fluorescence decrease was saturated ([3]; tryptophan fluorescence titration): about 32 μM
- PPP intermediate metabolites [4]: significantly decreased
- intracellular content of NADPH [4]: significant decrease
